{"source": "patent US20260216134A1", "about": "“CHARGED PI-CONJUGATED MOLECULES FOR THE TREATMENT OF MICROBIAL INFECTIONS” (priority 2023, published 2026)", "key": {"[1]": {"tested_on": "HEK293 (epithelial-like kidney cells)", "assay": "Presto Blue viability assay, HEK293", "format": "cell-based, human", "conditions": "HEK293, Presto Blue, 8 h treatment; read-out: IC50 (concentration needed to inhibit cell viability by 50%)", "protocol": "The biocompatibility of charged pi-conjugated compounds with mammalian cell lines was evaluated by studying the effects of different charged pi-conjugated compound concentrations on the viability of two mammalian cell lines: A549 (epithelial-like lung cells) and HEK293 (epithelial-like kidney cells). […] Dose-response curves were used to determine IC50 values, that is, the concentration of charged pi-conjugated compound needed to inhibit cell viability by 50%. […] The MIC of MRSA USA300 was used to calculate the therapeutic index. MRSA USA300 is a major contributor to community-associated MRSA infections, including skin and soft tissue infections, bacteraemia, endocarditis, bone and joint infections and nosocomial infections. […]\nThe biocompatibility of charged pi-conjugated compounds with mammalian cell lines was assessed by determining their impact on the mitochondrial activity of human alveolar basal epithelial adenocarcinoma cells (A549) and human embryonic kidney cells (HEK293T) cells, using the Presto Blue assay according to the manufacturer's protocol. […] After 8 h, Presto Blue cell viability reagent (Thermo Fisher Scientific, Waltham, MA, USA) was added to the cells, and after 2 h of incubation, fluorescence was measured using a microplate reader (BioTek Instruments Inc., Winooski, VT, USA). […] The therapeutic index was calculated from the ratio between IC50 and the MIC."}, "S. aureus ATCC 25923": {"tested_on": "S. aureus ATCC 25923", "assay": "Single-step isolation of spontaneous resistant mutants", "format": "cell-based, Staphylococcus aureus", "excerpt": "FIGS. 10A-10C show the development of resistance and mutation rate of bacterial strains subjected to repeated exposure to charged pi-conjugated compounds. (FIG. 10A) Stepwise development of resistance in B. cereus CECT131123, E. faecalis ATCC 29212, S. aureus ATCC 25923, and S. pneumoniae ATCC 49619. Bacterial strains were repeatedly exposed to charged pi-conjugated compounds or the conventional antibiotics ciprofloxacin (CIP), linezolid (LNZ) and vancomycin (VAN) for over 30 cycles. The y-axis indicates the MIC fold change, reflecting increased resistance over repeated treatment. (FIG. 10B) Mutation rate, represented as the frequency of rifampin-resistant cells, in S. aureus ATCC 25923 subjected to repeated cycles of treatment with charged pi-conjugated compounds or the conventional antibiotic ciprofloxacin (CIP). (FIG. 10C) Single-step resistance assessment of spontaneous mutants. […]\nTo estimate the occurrence of spontaneous charged pi-conjugated compound-resistant mutants, S. aureus cells cultured overnight were resuspended in PBS to yield 10^10 cells mL^−1 and then plated on both selective (charged pi-conjugated compound-containing) and non-selective LB agar plates. After incubation at 37° C. for 24-48 hours, colonies were counted, and the frequency of charged pi-conjugated compound-resistant mutants was calculated. […]"}, "Gram-positive strains": {"tested_on": "Gram-positive strains", "assay": "MIC / MIC50 by broth microdilution in panel of Gram-positive strains", "format": "cell-based", "conditions": "MIC50 over all Gram-positive strains tested (Table 2)", "protocol": "Antibacterial activity was assessed by determining the minimal inhibitory concentration (MIC) and the minimal bactericidal concentrations (MBC) and by monitoring time-dependent bacterial killing of exponentially growing cells. Bacterial cell suspensions (OD600≈0.02 in cation-adjusted Muller-Hinton Broth) were treated with increasing concentrations of the different molecules. The minimal inhibitory concentration (MIC) was defined as the minimal concentration of the molecule resulting in complete bacterial growth arrest. The minimal bactericidal concentration (MBC) was defined as the lowest concentration of the molecule that killed 99.9% of the inoculum. A molecule was determined to be bactericidal if the ratio of the MBC to the MIC was less than 4 to 6. […] In M. smegmatis, the antibacterial activity of charged pi-conjugated compounds was generally lower.\nThe MIC values for all Gram-positive strains tested (Table 2) were used to calculate the MIC50, i.e., the minimum inhibitory concentration needed to inhibit the growth of 50% of the tested isolates (FIG. 5A). […] When the average MIC50 values were evaluated, the most susceptible bacterial genera were Streptococcus sp., followed by Staphylococcus sp. In contrast, Propionibacterium sp. had the highest average MIC50 (FIG. 5B).\nThe broth microdilution method was used to determine the MIC of charged pi-conjugated compounds according to the CLSI guidelines. Charged pi-conjugated compound stock solutions (16 mM) were prepared in dimethyl sulfoxide (DMSO). Serial twofold dilutions of the charged pi-conjugated compounds were freshly prepared using the appropriate liquid media (Table 2), and 100 μL of each dilution was added to the appropriate wells of 96-well microtiter plates. The bacterial inoculum was further diluted in liquid media, and 100 μL was added to each well, resulting in a final cell density of ≈5×10^5 CFU mL^−1. […] A molecule was determined to be bactericidal if the ratio of the MBC to the MIC was less than 4 to 6. […]"}}, "data": [{"smiles": "C[N+]1=C(/C=C/C2=CC(=C/C=C3/N(CCCCCC(=O)NCCCCCCN)c4ccc5ccccc5c4C3(C)C)/CCC2)C(C)(C)c2c1ccc1ccccc21.Cl.[Cl-]", "note": "[Cy7.5-amine, Cyanine 7.5-amine]", "values": [{"measurement": "IC50", "setting": "[1]", "value": 6.3, "unit": "µM"}, {"measurement": "MIC of spontaneous resistant mutants", "setting": "S. aureus ATCC 25923; mutants propagated on fresh plates, compared with WT strain", "value": "MIC indistinguishable from that of the WT"}, {"measurement": "spontaneous mutation rate", "setting": "S. aureus ATCC 25923; plates containing 4×, 8×, 16×MIC, resistant CFU / total CFU", "value": "≤ 10^−6"}, {"measurement": "antibacterial activity according to MIC50", "setting": "Gram-positive strains", "value": "strongest antibacterial activity"}]}]}
